Reference: patent US20220133753A1, “COMPOSITIONS AND METHODS USEFUL FOR TREATING DISEASES CHARACTERIZED BY INSUFFICIENT PANTOTHENATE KINASE ACTIVITY” (Comet Therapeutics, Inc., priority 2016, published 2022)
Entries after “also recorded” stand apart in the source; their conditions may differ.

How the values were obtained:
[1] = tested on: COASY down-regulated HEK293 cells; experiment: Knock-down of COASY by siRNA in HEK293 cells with CoA; assay type: cell-based, human; details: CoA added to the medium
Description: Knock-down of COASY by siRNA in mammalian HEK293 cells: HEK293 were maintained as described above. HEK293 were transfected with 200 nM COASY siRNA (GE Healthcare human COASY 80347 smartpool Cat no: M-006751-00-0010) or non-targeting siRNA (GE Healthcare Cat no: D-001206-13-20) using lipofectamine 2000 (Invitrogen) 4 h after transfection CoA was added in a final concentration of 25 uM. Cells were cultured for 3 days and then harvested for HPLC analysis of total CoA and PPanSH levels and Western blot (histone acetylation) as described below.
Western blot analysis and Antibodies: For Western blot analysis, cells were collected and washed with phosphate buffer saline (PBS), followed by centrifugation. The cells were lysed and sonicated in 1X Laemmli Sample Buffer and boiled for 5 min with 5% β-mercaptoethanol (Sigma). Protein content was determined using DC protein assay (BioRad). Equal amounts of protein were loaded on a 10 or 12.5% SDS-PAGE gel, transferred onto PVDF membranes and blocked with 5% milk in PBS/0.1% Tween, followed by overnight incubation with primary antibodies. […] Appropriate HRP-conjugated secondary antibodies (Amersham) were used and detection was performed using enhanced chemi-luminescence (Pierce cat nog: 32106) and Amersham hyperfilm (GE Healthcare). Band intensities were quantified with Image-studio software.

[2] = Mice CoA intravenous injection study; assay type: in vivo, mouse; details: i.v.
Description: Sample preparation for mass spectrometry and instrumental parameters: Samples were briefly washed with ice-cold PBS solution. Samples were then sonicated thoroughly in 100 μl ice-cold milliQ (MQ) water containing 50 mM Tris(2-carboxyethyl)phosphine hydrochloride. Subsequently 100 ul saturated ammonium sulfate was added to each sample and centrifuged for 20 min at 10° C., 16100 rcf to collect supernatant. To 150 μl of supernatant, 15 ul of ammonium hydroxide (12.5%) was added and 20 μl was injected for LC-MS (liquid chromatography-mass spectrometry) analysis. For mouse plasma analysis, 50 ul of MQ water containing 50 mM Tris (2-carboxyethyl)phosphine hydrochloride was added to 50 ul of plasma and processed further as mentioned above. Appropriate dilution series of standard CoA, PPanSH and PPanSH(D4) was processed similarly before analysis. […] The flow was maintained at 1 ml/min with optimized mobile phase gradient of MQ water (A), 200 mM NH4Ac in 95/5 MQ water/acetonitrile adjusted to pH 4.5 with acetic acid (B), and acetonitrile (C). The separated analytes were detected with positive mode mass spectrometry under unit resolution. […] The absolute concentration was finally calculated using linear regression analysis of respective standard compounds, except CoA(D4) which was estimated indirectly using CoA standards. […]

Structure (SMILES): CC(C)(COP(=O)(O)OP(=O)(O)OC[C@H]1O[C@@H](n2cnc3c(N)ncnc32)[C@H](O)[C@@H]1OP(=O)(O)O)[C@@H](O)C(=O)NCCC(=O)NCCS [CoA, Coenzyme A]
- rescue of COASY RNAi-induced decrease in intracellular CoA levels [1]: neither rescued
- conversion of injected CoA in plasma ([2]; 30 minutes, HPLC): rapidly converted to 4′-phosphopantetheine
- 4′-phosphopantetheine in plasma after CoA injection ([2]; 6 hrs, mass spectrometry): elevated levels of PpanSH; also recorded: still present
